Source: publication PMC6968511 (Journal of Enzyme Inhibition and Medicinal Chemistry, 2019)

Columns and labels:
[1] = test system: HT-29 (human colorectral cancer); experiment: MTT cytotoxicity assay; format: cell-based; settings: tested up to 100 μM (data not shown)
[2] = test system: H9C2 (normal, rat myocytes); experiment: MTT cytotoxicity assay; format: cell-based; settings: tested up to 100 μM (data not shown)
[3] = test system: HCEC (human corneal epithelial cell); experiment: MTT cytotoxicity assay; format: cell-based; settings: MTT, tested up to 100 μM (data not shown)
MTT cytotoxicity assay = format: cell-based, human; settings: human, HCEC (human corneal epithelial) cells
Solubility in water = format: physicochemical
[4] = test system: HepG2 (human liver carcinoma); experiment: MTT cytotoxicity assay; format: cell-based; settings: tested up to 100 μM (data not shown)
hypertensive rabbits = experiment: Hypertensive rabbit IOP lowering study; format: in vivo; settings: topical
[5] = one drop (50 μL) of 1% solution (BRZ 1% suspension)

**Q.** With CC(=O)Nc1nnc(S(N)(=O)=O)s1 [AAZ, acetazolamide] as the compound, how does the “toxicity to HT-29 cells” value [1] read?
**A.** did not display any appreciable toxicity

**Q.** And the “toxicity to H9C2 cells” value [2]?
**A.** did not display any appreciable toxicity

**Q.** And the “toxicity to HCEC cells” value [3]?
**A.** did not display any appreciable toxicity

**Q.** What about the viability at 96 h, 1 % (MTT cytotoxicity assay) of the same compound?
**A.** 80%

**Q.** And the viability at 96 h, 2 % (MTT cytotoxicity assay)?
**A.** 10%

**Q.** What about the Solubility (Solubility in water) of the same compound?
**A.** 0.21%

**Q.** And the “toxicity to HepG2 cells” value [4]?
**A.** did not display any appreciable toxicity

**Q.** For CCN[C@H]1CN(CCCOC)S(=O)(=O)c2sc(S(N)(=O)=O)cc21 [BRZ, brinzolamide], which “toxicity to HT-29 cells” value [1] is on record?
**A.** did not display any appreciable toxicity

**Q.** And the “return to basal IOP values” (hypertensive rabbits; 1% suspension)?
**A.** 3 h

**Q.** What about the “maximal IOP lowering” value (hypertensive rabbits; [5]) of the same compound?
**A.** around 5 mm Hg

**Q.** And the “time of maximal IOP lowering effect post-administration” value (hypertensive rabbits; [5])?
**A.** 1 h

**Q.** And the “toxicity to H9C2 cells” value [2]?
**A.** did not display any appreciable toxicity

**Q.** What about the “toxicity to HCEC cells” value [3] of the same compound?
**A.** did not display any appreciable toxicity

**Q.** And the viability at 96 h, 1 % (MTT cytotoxicity assay)?
**A.** 40%

**Q.** And the Solubility (Solubility in water)?
**A.** 0.05%

**Q.** What about the “toxicity to HepG2 cells” value [4] of the same compound?
**A.** did not display any appreciable toxicity

**Q.** With CCN[C@H]1C[C@H](C)S(=O)(=O)c2sc(S(N)(=O)=O)cc21 [DZA, dorzolamide] as the compound, how does the Solubility (Solubility in water) read?
**A.** 0.67%
